Assay results: the NIST ThermoML archive (doi:10.1021/acs.jced.5b00623)
Where “and” joins values, the source holds several entries; their conditions need not be identical. Equal values may be shown once.

Conditions: for mass density: Buoyancy - hydrostatic balance with magnetic suspension - two sinkers; for vapor or sublimation pressure: Closed cell (Static) method; for speed of sound: Spherical resonator

O=C(C(F)(F)C(F)(F)F)C(F)(C(F)(F)F)C(F)(F)F [dodecafluoro-2-methylpentan-3-one]
Conditions | mass density [kg/m3] | speed of sound [m/s]
400.01 K, 16056 kPa, Liquid | 1413.68 | –
400.01 K, 24343 kPa, Liquid | 1465.04 | –
400.05 K, 54.88 kPa, Gas | – | 102.64
400.05 K, 54.92 kPa, Gas | – | 102.64
400.05 K, 154.66 kPa, Gas | – | 99.83
400.05 K, 252.99 kPa, Gas | – | 96.94
400.05 K, 354.19 kPa, Gas | – | 93.75
400.05 K, 451.42 kPa, Gas | – | 90.4
400.05 K, 554.73 kPa, Gas | – | 86.45
400.05 K, 667.8 kPa, Gas | – | 81.52
402 K, 14323 kPa, Liquid | 1395.32 | –
410.01 K, 16854 kPa, Liquid | 1394.24 | –
420 K, 19987 kPa, Liquid | 1392.85 | –
420.02 K, 6075.7 kPa, Liquid | 1241.69 | –
425.04 K, 60.31 kPa, Gas | – | 105.94
425.04 K, 144.61 kPa, Gas | – | 104
425.04 K, 258 kPa, Gas | – | 101.36
425.04 K, 399.11 kPa, Gas | – | 97.86
425.04 K, 546.05 kPa, Gas | – | 93.91
425.04 K, 696.35 kPa, Gas | – | 89.45
425.04 K, 845.73 kPa, Gas | – | 84.47
425.04 K, 951.86 kPa, Gas | – | 80.49
425.04 K, 1061.7 kPa, Gas | – | 75.84
429.99 K, 8117.7 kPa, Liquid | 1240.57 | –
430.02 K, 23113 kPa, Liquid | 1391.48 | –
440 K, 10172 kPa, Liquid | 1239.42 | –
440.01 K, 26214 kPa, Liquid | 1390.14 | –
449.97 K, 1492 kPa, Gas | – | 74.05
449.98 K, 99.8 kPa, Gas | – | 108.43
449.98 K, 296.98 kPa, Gas | – | 104.72
449.98 K, 499.37 kPa, Gas | – | 100.64
449.98 K, 701.04 kPa, Gas | – | 96.26
449.98 K, 901.63 kPa, Gas | – | 91.5
449.98 K, 1104.8 kPa, Gas | – | 86.19
449.98 K, 1292.1 kPa, Gas | – | 80.71
449.98 K, 1680.8 kPa, Gas | – | 66.68
450 K, 12226 kPa, Gas | 1238.27 | –
450.01 K, 394.1 kPa, Gas | 35.895 | –
450.01 K, 913.4 kPa, Gas | 93.929 | –
450.01 K, 1478.4 kPa, Gas | 185.135 | –
450.01 K, 2042.6 kPa, Gas | 417.845 | –
450.01 K, 2500.6 kPa, Gas | 856.702 | –
450.01 K, 2998.2 kPa, Gas | 943.857 | –
450.01 K, 3997.1 kPa, Gas | 1026.46 | –
450.01 K, 4993.9 kPa, Gas | 1075.63 | –
450.01 K, 5983.6 kPa, Gas | 1111.42 | –
450.01 K, 8215.2 kPa, Gas | 1169.39 | –
450.01 K, 12010 kPa, Gas | 1235.17 | –
450.01 K, 15954 kPa, Gas | 1283.62 | –
450.01 K, 19948 kPa, Gas | 1321.88 | –
450.01 K, 29286 kPa, Gas | 1388.75 | –
460 K, 14282 kPa, Gas | 1237.17 | –
469.99 K, 2186.2 kPa, Gas | 306.462 | –
469.99 K, 2797.9 kPa, Gas | 560.84 | –
469.99 K, 3424.1 kPa, Gas | 779.472 | –
469.99 K, 6087.4 kPa, Gas | 1018.11 | –
470 K, 680 kPa, Gas | 61.543 | –
470 K, 1356.4 kPa, Gas | 142.264 | –
470 K, 4374.3 kPa, Gas | 910.538 | –
470 K, 7969.1 kPa, Gas | 1085.6 | –
470 K, 9768.9 kPa, Gas | 1131.11 | –
470 K, 11977 kPa, Gas | 1173.86 | –
470 K, 14031 kPa, Gas | 1205.91 | –
470 K, 16332 kPa, Gas | 1236.02 | –
475.01 K, 147.79 kPa, Gas | – | 110.98
475.01 K, 349.5 kPa, Gas | – | 107.83
475.01 K, 501.76 kPa, Gas | – | 105.38
475.01 K, 501.77 kPa, Gas | – | 105.38
475.01 K, 501.78 kPa, Gas | – | 105.38
475.01 K, 501.8 kPa, Gas | – | 105.38
475.01 K, 697.46 kPa, Gas | – | 102.08
475.01 K, 898.52 kPa, Gas | – | 98.51
475.01 K, 1150.9 kPa, Gas | – | 93.77
475.01 K, 1296.2 kPa, Gas | – | 90.92
475.01 K, 1496.6 kPa, Gas | – | 86.78
475.01 K, 1685 kPa, Gas | – | 82.69
500.01 K, 103.24 kPa, Gas | – | 114.77
500.01 K, 301.45 kPa, Gas | – | 112.25
500.01 K, 502.44 kPa, Gas | – | 109.63
500.01 K, 502.55 kPa, Gas | – | 109.63
500.01 K, 502.62 kPa, Gas | – | 109.63
500.01 K, 502.7 kPa, Gas | – | 109.63
500.01 K, 502.81 kPa, Gas | – | 109.64
500.01 K, 503 kPa, Gas | – | 109.64
500.01 K, 703.51 kPa, Gas | – | 106.95
500.01 K, 893.84 kPa, Gas | – | 104.33
500.01 K, 1100.4 kPa, Gas | – | 101.42
500.01 K, 1100.8 kPa, Gas | – | 101.42
500.01 K, 1308.1 kPa, Gas | – | 98.44
500.01 K, 1503.6 kPa, Gas | – | 95.59
500.01 K, 1746.5 kPa, Gas | – | 92
500.02 K, 1746.7 kPa, Gas | – | 92
500.02 K, 1746.9 kPa, Gas | – | 91.99

Liquid
Conditions | vapor or sublimation pressure
400.01 K | 826 kPa
410.02 K | 1016 kPa
410.03 K | 1014.3 kPa
420.02 K | 1238.2 kPa and 1238.3 kPa
